This note sets out measurements from US12216121B2, “Methods and compositions for spacial and temporal measurement of catalytic activity” (The University of Chicago, priority 2017, dated 2025).

This test in a line: Specificity of reporter dye (compound 8) towards metal ions and amino acids. Conditions: 1 mM metal ions, 5 mM H2O2 and amino acids, phosphate buffer pH 7.2; all tested except cysteine. How it is done:
FIG. 5C illustrates the sensitivity of sensing dye, (compound 8) in presence of different analyte such as 1. Phosphate buffer (pH=7.2), 1 mM of 2. Na+, 3. K+, 4. Ca2+, 5. Fe2+, 6. Zn2+, and 5 mM of 7. H2O2, 8. His, 9. Ser, 10. Lys, 11. Val, and 12. Cys. Each intensity is normalized from the intensity of compound 8 before treatment with respective analytes.
The specificity of reporter dye was checked towards thiol disulfide exchange reaction and treated the reporter dye (compound 8) with different metal ions and amino acids.

“thiopyridyl conjugated blocked 6′-O propargyl fluorescein [compound 8]”: the “reaction with metal ions and amino acids (fluorescence)” value is listed as “No reaction was observed”.
